Like-named read-outs stand apart in the source and are kept apart here. Residues, ends and D or L forms follow the SMILES beside them. No end group written: not given here.
Legend:
Assay type in all cases: cell-based
[1] = system: SK-MEL-28 human melanoma cells; settings: 48 hr; for efficacy in inhibiting cell viability: human melanoma, 50 nM; for inhibition of cell viability: human, 100 nM
Excerpt: (§1) FIG. 10: Effect of CIDEC and fragment peptides on human melanoma cell (SK-MEL-28) viability. [full-length CIDEC, #1, #2, #4, #5, #6=shorter fragment peptides of full-length CIDEC]; Cell: human melanoma cells SK-MEL-28; Assay: Cell viability assay (Presto-Blue, Invitrogen); Doses (nM): 0, 50, 100; Treatment period (hr): 48.
(§2) Human cancer cell lines (part of NCI-60 panel of human cancer cells)—SK-MEL-5 (melanoma), SK-MEL-28 (melanoma), MCF-7 (breast cancer), 786-0 (renal cancer), A498 (renal cancer), Hep-G2 (liver cancer), SK-HEP-1 (liver cancer), PANC-1 (pancreatic cancer), and normal human skin fibroblast cells MALME-3 cells were obtained from American Type Culture Collection (ATCC; Manassas, VA). The cells were grown and maintained in corresponding complete growth medium—PANC-1 in DMEM medium (ATCC), 786-0 in RPMI-1640 medium, remaining cell lines in EMEM media (ATCC), and MALME-3 in McCoy's medium (ATCC)—as indicated by ATCC protocols. Complete growth media was supplemented with 10% fetal bovine serum (FBS; ATCC) and 1× antibiotic-antimycotic (Thermo Fisher Scientific, Waltham, MA). MALME-3 cells were grown in McCoy's medium (ATCC) supplemented with 15% FBS and 1× antibiotic-antimycotic. Cells were grown at 37C/5% CO2 in a humidified incubator. Media was replaced every third day.
(§3) Recombinant hGH was purchased from Antibodies Online (Atlanta, GA), GH antagonist (GHA; Somavert) was obtained from Pfizer (New York City, NY), full length CIDEC was purchased from Abcam (Cambridge, UK) and CIDEC fragment peptides were synthesized at Genscript (Piscataway, NJ). No hGH or GHA was present in the media or added externally unless specifically mentioned. […]
(§4) A resazurin based absorption assay was performed measuring cell proliferation, as a measure of inhibition of cell growth/viability. There are several commonly practiced assays using tetrazolium (MTT, MTS, XTT), or resazurin which give a quantitative reflection of cell viability. […] Proliferating cells can be quantified by spectrophotometric measurement of a bright pink fluorescent product called resorufin (stable for >4 hr) formed when mildly fluorescent blue resazurin enters a reducing intracellular environment characteristic of proliferating cells. […] The resazurin assay was performed following the respective treatment periods and resorufin absorbance was measured at 570 nm (reference wavelength=600 nm) using Spectramax250 (Molecular Devices, Sunnyvale, CA) and SoftmaxPro software. […]
A 1% (w/v) resazurin (Sigma-Aldrich) solution in 1×PBS was made and filter-sterilized. […] Inside the proliferating cells mildly fluorescent blue resazurin is reduced to a bright pink fluorescent product called resorufin (stable for 4 hr), which is a quantitative measure of the percentage of proliferating cells. […]

[2] = system: 786-O human renal cancer (clear cell renal cell carcinoma) cells; settings: for efficacy in inhibiting cell viability: human kidney cancer, 50 nM; for efficacy in inhibiting cell viability / inhibition of cell viability: 48 hr; for inhibition of cell viability: human, 100 nM
Excerpt: as §1, with “11:” for “10:”, “renal cancer” for “melanoma”, “(786-0)” for “(SK-MEL-28)”, “renal cancer cells;” for “melanoma cells SK-MEL-28;”
as §2
as §3, with “mentioned. For hGH treatment, 16 hr. after cell seeding (or 24 hr. post-transfection), any GH or GHA or CIDEC or peptides were added at specific concentrations.” for “mentioned.”
(§5) A resazurin based absorption assay was performed measuring cell proliferation, as a measure of inhibition of cell growth/viability. There are several commonly practiced assays using tetrazolium (MTT, MTS, XTT), or resazurin which give a quantitative reflection of cell viability. Although ATP detection assay is the most sensitive of the available options, resazurin-based assay is considered adequate and is routinely used to measure compound EC50s or cell viability following cytotoxic treatments. A stock solution of 1% (w/v) resazurin (Sigma-Aldrich #R7017) in 1×PBS was made and filter-sterilized. The final concentration of resazurin in the assay was 0.004%. Proliferating cells can be quantified by spectrophotometric measurement of a bright pink fluorescent product called resorufin (stable for >4 hr) formed when mildly fluorescent blue resazurin enters a reducing intracellular environment characteristic of proliferating cells. Cells were seeded at 10,000 cells/cm^2 into 96-well plates and transfected as described above. The resazurin assay was performed following the respective treatment periods and resorufin absorbance was measured at 570 nm (reference wavelength=600 nm) using Spectramax250 (Molecular Devices, Sunnyvale, CA) and SoftmaxPro software. In all cases, cells were incubated at 37C/5% CO2 for 1 hr following resazurin addition. The resazurin assay for cell proliferation was used to measure EC-50 of relevant drugs and Graph Pad Prism was used to calculate EC-50 shifts (EC50 shift=EC50 of treated cell line/EC50 of parental cell line.
(§6) A 1% (w/v) resazurin (Sigma-Aldrich) solution in 1×PBS was made and filter-sterilized. The final concentration of resazurin in the assay was 0.004%. Inside the proliferating cells mildly fluorescent blue resazurin is reduced to a bright pink fluorescent product called resorufin (stable for 4 hr), which is a quantitative measure of the percentage of proliferating cells. In all cases, cells were incubated at 37C/5% CO2 for 45-60 minutes for adequate sensitivity of detection. Briefly, cells were seeded at 10,000 cells/cm^2 into 96-well plates and transfected as described above. […]

[3] = system: HepG2 human liver cancer (hepatocellular carcinoma) cells; assay: cells; settings: for efficacy in inhibiting cell viability: human liver cancer, 50 nM; for inhibition of cell viability: human, 100 nM
Procedure: as §2
as §3, with “mentioned. For hGH treatment, 16 hr. after cell seeding (or 24 hr. post-transfection), any GH or GHA or CIDEC or peptides were added at specific concentrations.” for “mentioned.”
as §5
as §6, with “above. The resazurin assay was performed 60 hr after transfection (unless specified otherwise) and resorufin absorbance was measured at 570 nm (reference wavelength=600 nm) using Spectramax250 (Molecular Devices) and SoftmaxPro v4.7.1 software.” for “above.”

cells = assay: Anti-cancer effect of FSP27 segment in cells
[4] = system: SK-MEL-28 human melanoma cells
[5] = system: MCF-7 human breast cancer cells; assay: Cell viability assay (Presto-Blue / resazurin), MCF-7
Procedure: as §2, with “MALME-3 cells were grown in McCoy's medium (ATCC) supplemented with 15% FBS and 1× antibiotic-antimycotic. Cells were grown at 37C/5% CO2 in a humidified incubator. Media was replaced every third day.” left out
(§7) A resazurin based absorption assay was performed measuring cell proliferation, as a measure of inhibition of cell growth/viability. There are several commonly practiced assays using tetrazolium (MTT, MTS, XTT), or resazurin which give a quantitative reflection of cell viability. […] Proliferating cells can be quantified by spectrophotometric measurement of a bright pink fluorescent product called resorufin (stable for >4 hr) formed when mildly fluorescent blue resazurin enters a reducing intracellular environment characteristic of proliferating cells. […]

[6] = system: human normal fibroblast cells; assay: Cell viability assay (Presto-Blue / resazurin), normal fibroblasts; settings: exposure to up to 100 nM CIDEC, 24 hr
Procedure: FIG. 6: Effect of CIDEC on human normal fibroblast cells; Cell: human normal fibroblast cells; Assay: Cell viability assay (Presto-Blue, Invitrogen); Doses (nM): 0, 50, 100 nM; Treatment period (hr): 24.
Human cancer cell lines (part of NCI-60 panel of human cancer cells)—SK-MEL-5 (melanoma), SK-MEL-28 (melanoma), MCF-7 (breast cancer), 786-0 (renal cancer), A498 (renal cancer), Hep-G2 (liver cancer), SK-HEP-1 (liver cancer), PANC-1 (pancreatic cancer), and normal human skin fibroblast cells MALME-3 cells were obtained from American Type Culture Collection (ATCC; Manassas, VA). […]
as §4

[7] = system: PANC-1 human pancreatic ductal adenocarcinoma cells; assay: Cell viability assay (Presto-Blue / resazurin), PANC-1
Procedure: as §2, with “MALME-3 cells were grown in McCoy's medium (ATCC) supplemented with 15% FBS and 1× antibiotic-antimycotic. Cells were grown at 37C/5% CO2 in a humidified incubator. Media was replaced every third day.” left out
as §7

CC[C@H](C)[C@H](NC(=O)[C@H](CCCCN)NC(=O)[C@H](CCCCN)NC(=O)[C@H](C)NC(=O)[C@@H]1CCCN1C(=O)[C@H](CCCCN)NC(=O)[C@H](Cc1c[nH]cn1)NC(=O)[C@H](CO)NC(=O)[C@H](CC(C)C)NC(=O)[C@H](CO)NC(=O)[C@H](CC(C)C)NC(=O)[C@@H]1CCCN1C(=O)[C@H](Cc1c[nH]cn1)NC(=O)[C@H](CCCNC(=N)N)NC(=O)[C@@H](NC(=O)CNC(=O)[C@H](CCC(N)=O)NC(=O)[C@H](CCC(=O)O)NC(=O)[C@@H](N)CO)[C@@H](C)O)C(=O)N[C@@H](CC(=O)O)C(=O)N[C@H](C(=O)O)C(C)C [Cf4] (H-SEQGTRHPLSLSHKPAKKIDV-OH; N-terminus and C-terminus assumed)
efficacy in inhibiting cell viability [1]: highly efficacious
inhibition of cell viability [1]: 100%
efficacy in inhibiting cell viability [2]: highly efficacious
inhibition of cell viability [2]: 100%
efficacy in inhibiting cell viability ([3]; 48 hr): highly efficacious
inhibition of cell viability ([3]; 48 hr): 100%

COc1cccc2c1C(=O)c1c(O)c3c(c(O)c1C2=O)C[C@@](O)(C(=O)CO)C[C@@H]3O[C@H]1C[C@H](N)[C@H](O)[C@H](C)O1 [doxorubicin, reference compound]
EC50 ([3]; Homo sapiens, HepG2, read-out: doxorubicin EC50 for HepG2): 190 nM
cells killed ([3]; doxorubicin 300 nM, in absence of CIDEC): > 90%

YDLHCCGAKRIMKEAFRWALFSMQATGHVLLGTSCYLQQLLDATEEGQ (cysteines drawn unpaired) [Cf2]
efficacy in inhibiting cell viability [1]: highly efficacious
inhibition of cell viability [1]: 100%
efficacy in inhibiting cell viability [2]: highly efficacious
inhibition of cell viability [2]: 100%
efficacy in inhibiting cell viability ([3]; 48 hr): highly efficacious
inhibition of cell viability ([3]; 48 hr): 100%

segment 120-140: segment of FSP27, amino acids 120-140; FIG. 13 discloses SEQ ID NO: 4, so possibly Cf4 (SEQGTRHPLSLSHKPAKKIDV)
efficacy towards anti-cancer effect in cells (cells): maximum efficacy

B1: CIDEC: human full-length CIDEC (FSP27) protein, purchased from Abcam (protein, UniProt Q96AQ7 1-238, looked up)
chain: MEYAMKSLSLLYPKSLSRHVSVRTSVVTQQLLSEPSPKAPRARPCRVSTADRSVRKGIMAYSLEDLLLKVRDTLMLADKPFFLVLEEDGTTVETEEYFQALAGDTVFMVLQKGQKWQPPSEQGTRHPLSLSHKPAKKIDVARVTFDLYKLNPQDFIGCLNVKATFYDTYSLSYDLHCCGAKRIMKEAFRWALFSMQATGHVLLGTSCYLQQLLDATEEGQPPKGKASSLIPTCLKILQ
modifications: full-length
notes: human full-length CIDEC (FSP27) protein, purchased from Abcam
improvement of drug effects in human melanoma ([4]; 50 nM CIDEC plus anti-cancer drugs, 48 hr): did not improve drug effects
IC50 ([4]; SK-MEL-28, 24 hr, doses 0-400 nM, read-out: IC50, sigmoid inhibition curve of cell viability): > 400 nM
EC50 ([4]; SK-MEL-28, up to 400 nM CIDEC, read-out: EC50 (cell viability)): > 400 nM
improvement of cell inhibition rate above that of doxorubicin or vemurafenib ([4]; co-administration, 24 hr, doxorubicin 300 nM, vemurafenib 50 nM): did not improve the cell inhibition rate
EC50 ([5]; MCF-7, 0-400 nM CIDEC): 187 nM
IC50 ([5]; MCF-7, 24 hr, doses 0-400 nM, read-out: IC50, sigmoid inhibition curve of cell viability): 187 nM
EC50 ([2]; 786-0, up to 400 nM CIDEC, read-out: EC50 (cell viability)): > 400 nM
IC50 ([2]; 786-O, 24 hr, doses 0-400 nM, read-out: IC50, sigmoid inhibition curve of cell viability): > 400 nM
decrease in cell viability of normal cells [6]: no significant decrease in cell viability
effect on efficacy of sorafenib-tosylate against liver cancer ([3]; 50 nM CIDEC plus anti-cancer drug, 48 hr): significant increase in efficacy
EC50 ([3]; HepG2, 0-400 nM CIDEC, read-out: EC50 (dose that causes 50% decrease of cell viability)): 65 nM
IC50 ([3]; HepG2, 24 hr, doses 0-400 nM, read-out: IC50, sigmoid inhibition curve of cell viability): 65 nM
decrease in cell viability of liver cancer cells treated with sorafenib-tosylate ([3]; co-administration of fl-CIDEC with sorafenib-tosylate (1000 nM), 24 hr): 2 fold
EC50 ([7]; PANC1, 0-400 nM CIDEC): 132 nM
IC50 ([7]; PANC-1, 24 hr, doses 0-400 nM, read-out: IC50, sigmoid inhibition curve of cell viability): 132 nM
